Measurements from patent US6653478B2, “Substituted benzimidazol-2-ones as vasopressin receptor antagonists and neuropeptide Y modulators” (Ortho-McNeil Pharmaceutical, Inc., priority 2000, dated 2003).
Where a name gives a salt, the structure may show the parent alone.

What was measured:
human V2 receptor = human V2 receptor (Homo sapiens, UniProt P30518); experiment: V2 binding assay (3H-AVP displacement, HEK-293 membranes); design: expressed in transfected cells; host or cells: HEK-293 (membranes); conditions: 1.0 μM compound; for inhibition at 1 µM: read-out: V2@1.0, % Inh
Summary of the method: (§1)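 Membranes from transfected HEK-293 cells incubated 1 h at room temperature with ³H-AVP (10,000 cpm) in 50 mM Tris, 5 mM MgCl2, 0.1% BSA, pH 7.5 plus protease inhibitors. Non-specific binding set with 1.25 μM AVP. Bound tracer collected on PEI-soaked GF/C filters and counted by scintillation.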

NPY2 receptors = target: T1, NPY2 receptors (Homo sapiens, UniProt P49146); experiment: Neuropeptide Y receptor binding assay (125I-PYY, KAN-TS cell membranes); conditions: 10 μM compound; for inhibition at 10 µM: read-out: NPY-2@10, % Inh
T1 construct: Cell Membranes from KAN-TS cells having NPY2 receptors; endogenous in cells; host or cells: KAN-TS cells (membranes)
T1 sequence (P49146 1-381): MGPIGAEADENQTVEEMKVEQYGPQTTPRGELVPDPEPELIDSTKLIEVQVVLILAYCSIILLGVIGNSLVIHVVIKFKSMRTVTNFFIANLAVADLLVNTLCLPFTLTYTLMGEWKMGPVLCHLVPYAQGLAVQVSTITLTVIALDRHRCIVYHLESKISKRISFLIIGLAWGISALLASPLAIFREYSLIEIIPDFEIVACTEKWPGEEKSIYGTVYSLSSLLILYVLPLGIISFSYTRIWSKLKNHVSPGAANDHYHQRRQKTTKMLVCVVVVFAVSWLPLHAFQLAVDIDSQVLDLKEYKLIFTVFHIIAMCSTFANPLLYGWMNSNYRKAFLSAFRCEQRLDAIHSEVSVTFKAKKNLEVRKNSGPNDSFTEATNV
Experimental: Neuropeptide Y Receptor Binding Assay
Load 96-well RIA racks with RIA vials (Sarstedt, cat. #73.1055)
Prepare membranes—use 2×15 cm confluent plates/96-well assay plate
Add 14 mls Homogenization buffer/cell pellet
Homogenize at high speed for 15 seconds
Transfer to 15 ml conical tube and spin 5′ at 4° C. at setting 3 in RT6000 centrifuge
Transfer supernatant to 30 ml Corex tube
Balance and spin 25′ at 15,000 rpm at 4° C.
Resuspend pellet in 10 mls Binding buffer
Homogenize at high speed for 15 sec.
Bring volume up to 50 mls in Binding buffer (25 mls/2×96-well plates)
Keep on ice until use or freeze in aliquots (2 plates/tube) in −70° C.
Prepare ^125I-PYY (for 2×96-well compound plates)
Dilute 50 uCi ^125I-PYY in 1 ml H2O
Add 0.4 ml 10% BSA to 20 ml Binding buffer
Add 150 μl ^125I-PYY, mix well
NSB (1 μM PYY final conc.): 40 μl PYY (100 μM stock)+60 μl 30% DMSO in HEPES=40 μM PYY—add 5 μl/well
Total Binding: Add 5 μl/well of Compound Diluent
Add 5 μl compound (final conc. @10 μM)
Incubate at R.T. for 1 hr.
Spin plates for 10′ at setting 9 in RT6000 centrifuge
Aspirate supernatant from tubes, add 300 μl PBS and aspirate again.
After plates are washed and aspirated, put individual tubes in 12×75 mm polypropylene carrier tubes. Count on gamma counter.

human V1b receptor = target: T2, human V1b receptor (Homo sapiens, UniProt P47901); experiment: V1b binding assay (3H-AVP displacement, HEK-293 membranes); design: expressed in transfected cells; host or cells: HEK-293 (membranes); conditions: for inhibition at 10 µM: 10 μM compound, read-out: V1b % Inh @10; for inhibition at 1 µM: read-out: V1b@1.0, % Inh
T2 sequence (P47901 1-424): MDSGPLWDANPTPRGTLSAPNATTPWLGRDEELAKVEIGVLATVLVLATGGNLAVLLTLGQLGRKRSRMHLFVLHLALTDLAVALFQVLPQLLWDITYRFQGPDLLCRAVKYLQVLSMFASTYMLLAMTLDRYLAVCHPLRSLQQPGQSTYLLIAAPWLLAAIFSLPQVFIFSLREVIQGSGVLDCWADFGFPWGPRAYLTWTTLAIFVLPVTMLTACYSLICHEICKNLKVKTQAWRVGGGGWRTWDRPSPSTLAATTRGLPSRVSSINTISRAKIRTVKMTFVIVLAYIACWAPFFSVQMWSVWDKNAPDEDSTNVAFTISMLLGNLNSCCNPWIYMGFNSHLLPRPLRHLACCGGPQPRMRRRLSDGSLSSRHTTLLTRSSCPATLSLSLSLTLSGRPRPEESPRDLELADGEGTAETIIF
Summary of the method: as §1

human V1a receptor = human V1a receptor (Homo sapiens, UniProt P37288); experiment: V1a binding assay (3H-AVP displacement, HEK-293 membranes); design: expressed in transfected cells; host or cells: HEK-293 (membranes); conditions: for inhibition at 0.1 µM: 0.1 μM compound, read-out: V1a % Inh @0.1; for inhibition at 1 µM: read-out: V1a@1.0, % Inh
Summary of the method: as §1

human V1a receptor, sequence (P37288 whole entry): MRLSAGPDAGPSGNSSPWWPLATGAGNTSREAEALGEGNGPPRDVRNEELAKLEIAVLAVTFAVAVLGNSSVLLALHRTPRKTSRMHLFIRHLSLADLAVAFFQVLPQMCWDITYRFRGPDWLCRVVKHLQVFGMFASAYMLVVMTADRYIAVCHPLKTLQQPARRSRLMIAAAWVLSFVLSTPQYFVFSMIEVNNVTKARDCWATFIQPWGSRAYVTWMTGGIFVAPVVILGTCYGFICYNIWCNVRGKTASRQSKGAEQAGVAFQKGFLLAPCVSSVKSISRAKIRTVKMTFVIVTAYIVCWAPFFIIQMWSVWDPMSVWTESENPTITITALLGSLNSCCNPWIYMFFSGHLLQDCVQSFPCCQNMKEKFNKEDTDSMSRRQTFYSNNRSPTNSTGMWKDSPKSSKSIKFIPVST
human V2 receptor, sequence (P30518 whole entry): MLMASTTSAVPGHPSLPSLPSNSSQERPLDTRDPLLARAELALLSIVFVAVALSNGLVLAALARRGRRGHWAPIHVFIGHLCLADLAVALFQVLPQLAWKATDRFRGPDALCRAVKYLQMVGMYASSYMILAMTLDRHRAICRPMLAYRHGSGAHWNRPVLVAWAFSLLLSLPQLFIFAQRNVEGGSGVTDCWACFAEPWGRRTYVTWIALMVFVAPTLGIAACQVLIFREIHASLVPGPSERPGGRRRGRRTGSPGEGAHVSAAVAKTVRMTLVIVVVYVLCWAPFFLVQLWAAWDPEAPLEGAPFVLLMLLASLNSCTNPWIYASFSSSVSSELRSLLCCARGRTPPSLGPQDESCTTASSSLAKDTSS

Compound | inhibition at 1 µM (human V2 receptor) [%] | inhibition at 10 µM (NPY2 receptors) [%] | inhibition at 10 µM (human V1b receptor) [%] | IC50 (human V1b receptor) [nM] | IC50 (human V1a receptor) [nM] | also measured
NCCCn1c(=O)n(C2CCN(C(=S)NC(c3ccccc3)c3ccccc3)CC2)c2cc(Cl)c(Cl)cc21 [Compound 67, 5,6-Dichloro-1-[(N1-piperidinocarbothioylbenzhydrylamino)-4-yl]-3-(3-aminopropyl)-1,3-dihydro-benzimidazol-2-one] | 0 | 2 | 45 |  |  | inhibition at 0.1 µM (human V1a receptor): 57%
COc1ccc(C(NC(=S)N2CCC(n3c(=O)n(CCCN)c4ccccc43)CC2)c2ccc(OC)cc2)cc1 [Compound 68, 1-[(N1-Piperidinocarbothioyl-1,1-di(p-anisyl)methylamino)-4-yl]-3-(3-aminopropyl)-1,3-dihydrobenzimidazol-2-one Hydrochloride] | 0 | 11 | 66 | 4600 |  | inhibition at 0.1 µM (human V1a receptor): 46%
NC(=O)CCn1c(=O)n(C2CCN(C(=S)NC(c3ccccc3)c3ccccc3)CC2)c2ccccc21 [Compound 69, 1-[(N1-piperidinocarbothioyldiphenylmethylamino)-4-yl]-3-(2-amidoethyl)-1,3-dihydro-benzimidazol-2-one] | 0 | 40 | 27 |  |  | inhibition at 1 µM (human V1a receptor; 1.0 μM compound): 22%
CN(C)CCCn1c(=O)n(C2CCN(C(=S)NC(c3ccccc3)c3ccccc3)CC2)c2ccccc21 [Compound 71, 1-[(N1-piperidinocarbothioylbenzhydrylamino)-4-yl]-3-(3-N,N-dimethylaminopropyl)-1,3-dihydrobenzimidazol-2-one] | 0 | 79 | 88 | 870 | 29 | 
O=c1n(CCCN2CCCC2)c2ccccc2n1C1CCN(C(=S)NC(c2ccccc2)c2ccccc2)CC1 [Compound 73, 1-[(N1-piperidinocarbothioylbenzhydrylamino)-4-yl]-3-(3-N-pyrrolidinopropyl)-1,3-dihydro-benzimidazol-2-one] | 0 | 89 |  | 300 | 16 | 
O=C(NCc1ccccc1)N1CCC(n2c(=O)[nH]c3ccccc32)CC1 [Compound 74] | 0 | 0 | 29 |  |  | inhibition at 1 µM (human V1a receptor; 1.0 μM compound): 0%
O=C(NC(c1ccccc1)c1ccccc1)N1CCC(n2c(=O)[nH]c3ccccc32)CC1 [Compound 75] | 0 | 12 |  | 1000 |  | inhibition at 1 µM (human V1a receptor; 1.0 μM compound): 58%
CC(=O)NCCCn1c(=O)n(C2CCN(C(=S)NC(c3ccccc3)c3ccccc3)CC2)c2ccccc21 [Compound 76, 1-[(N1-Piperidinocarbothioyldiphenylmethylamino)-4-yl]-3-(3-acetamidopropyl)-1,3-dihydrobenzimidazol-2-one] | 0 | 41 | 25 |  | 250 | 
NCCCn1c(=O)n(C2CCN(C(=O)NC(c3ccccc3)c3ccccc3)CC2)c2ccccc21 [Compound 77, 1-[(N1-Piperidinocarbonyldiphenylmethylamino)-4-yl]-3-(3-aminopropyl)-1,3-dihydrobenzimidazol-2-one] | 0 | 10 | 30 |  | 79 | 
CN1CCN(CCCn2c(=O)n(C3CCN(C(=S)NC(c4ccccc4)c4ccccc4)CC3)c3ccccc32)CC1 [Compound 78, 1-[(N1-piperidinocarbothioylbiphenylmethylamino)-4-yl]-3-(3-N-(N-Methylpiperazino)propyl)-1,3-dihydrobenzimidazol-2-one] | 17 | 74 | 41 |  |  | inhibition at 1 µM (human V1a receptor; 1.0 μM compound): 95%
CCCN(CCC)CCCn1c(=O)n(C2CCN(C(=S)NC(c3ccccc3)c3ccccc3)CC2)c2ccccc21 [Compound 79, 1-[(N1-piperidinocarbothioylbiphenylmethylamino)-4-yl]-3-(3-N,N-dipropylaminopropyl)-1,3-dihydrobenzimidazol-2-one] | 13 | 80 |  |  | 16 | inhibition at 1 µM (human V1b receptor; 1.0 μM compound): 48%
O=c1n(CCCN2CCCCC2)c2ccccc2n1C1CCN(C(=S)NC(c2ccccc2)c2ccccc2)CC1 [Compound 81, 1-[(N1-piperidinocarbothioylbiphenylmethylamino)-4-yl]-3-(3-N-piperidinylpropyl)-1,3-dihydrobenzimidazol-2-one] | 18 | 89 |  | 76 | 4 | 
CC1CC(C)CN(CCCn2c(=O)n(C3CCN(C(=S)NC(c4ccccc4)c4ccccc4)CC3)c3ccccc32)C1 (centres unmarked) [Compound 82] | 11 | 91 |  | 140 | 6 | 
CCOC(=O)C1CCN(CCCn2c(=O)n(C3CCN(C(=S)NC(c4ccccc4)c4ccccc4)CC3)c3ccccc32)CC1 [Compound 83, 1-[(N1-piperidinocarbothioylbiphenylmethylamino)-4-yl]-3-[3-(4-ethylcarboxypiperidine)propyl]-1,3-dihydrobenzimidazol-2-one] | 2 | 79 |  |  | 44 | inhibition at 1 µM (human V1b receptor; 1.0 μM compound): 47%
O=c1n(CCCN2CCOCC2)c2ccccc2n1C1CCN(C(=S)NC(c2ccccc2)c2ccccc2)CC1 [Compound 84, 1-[(N1-piperidinocarbothioylbiphenylmethylamino)-4-yl]-3-(3-morpholinopropyl)-1,3-dihydrobenzimidazol-2-one] | 8 | 73 |  | 274 | 22 | 
CCN(CC)CCCn1c(=O)n(C2CCN(C(=S)NC(c3ccccc3)c3ccccc3)CC2)c2ccccc21 [Compound 85, 1-[(N1-piperidinocarbothioylbiphenylmethylamino)-4-yl]-3-(3-N,N-diethylaminopropyl)-1,3-dihydrobenzimidazol-2-one] | 8 | 81 |  | 230 | 20 | 
COC(=O)C(Cc1ccccc1)NC(=S)N1CCC(n2c(=O)n(CCCN3CCCC3)c3ccccc32)CC1 [Compound 86, 1-[(N1-Piperidinocarbothioyl-(2-phenyl-1-L-carboxymethyl)amino-4-yl)-4-yl]-3-(3-pyrrolidinylpropyl)-1,3-dihydrobenzimidazol-2-one] | 3 | 10 |  | 1190 | 13 | 
COc1ccccc1NC(=S)N1CCC(n2c(=O)n(CCCN3CCCC3)c3ccccc32)CC1 [Compound 87, 1-[(N1-Piperidinocarbothioyl-(2-methoxyphenyl)amino)-4-yl]-3-(3-pyrrolidinylpropyl)-1,3-dihydrobenzimidazol-2-one] |  |  |  |  |  | V2@1.0, % Inh (human V2 receptor): 3%; NPY-2@10, % Inh (NPY2 receptors): 13%; V1b@1.0, % Inh (human V1b receptor; 1.0 μM compound): 23%; V1a@1.0, % Inh (human V1a receptor; 1.0 μM compound): 30%
